Measurements as given in patent US20210255193A1, “LYSINE REACTIVE PROBES AND USES THEREOF” (The Scripps Research Institute, priority 2017, published 2021).

Columns and labels:
Assay in all cases: competitive isoTOP-ABPP
Format in all cases: binding
[1] = target: T1, HDHD3 Haloacid dehalogenase-like hydrolase domain-containing protein 3 (Homo sapiens, UniProt Q9BSH5); parameters: key to isoTOP-ABPP reactivity ratio at lysine Q9BSH5_K15: R = MS1 peak area ratio, DMSO (heavy) / compound-treated (light); settings: 50 uM, 231 sol, in vitro; for R value (DMSO/fragment) for probe 1 labeling: Q9BSH5_K15
T1 construct: isoTOP-ABPP experiments performed in cell lysates (in vitro); endogenous in cells; host or cells: soluble proteome of human cancer cell lines (MDA-MB-231; Ramos and Jurkat also prepared)
T1 sequence (Q9BSH5 1-251): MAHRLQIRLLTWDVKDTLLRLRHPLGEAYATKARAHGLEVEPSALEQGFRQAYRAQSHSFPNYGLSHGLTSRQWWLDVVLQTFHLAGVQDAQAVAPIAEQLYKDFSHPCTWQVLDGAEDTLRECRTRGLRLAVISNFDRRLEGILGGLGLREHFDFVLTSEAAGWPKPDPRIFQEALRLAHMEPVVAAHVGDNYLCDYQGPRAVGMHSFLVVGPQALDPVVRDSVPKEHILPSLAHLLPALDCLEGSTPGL
Description: (§1) In vitro covalent fragment treatment for isoTOP-ABPP. All compounds were made up as solutions in DMSO (100×) and were used at a final concentration of 50 μM for activated esters and 100 μM for guanidinylating agents. For each profiling sample, 0.5 ml of lysate was treated with 5 μl of the 100× compound stock solution or 5 μl of DMSO. Samples were treated with activated esters for
(§2) STP-alkyne labeling and click chemistry. For concentration-dependent reactivity measurements by isoTOP-ABPP, 0.5 ml proteome aliquots were treated at ambient temperature with 1 mM STP-alkyne 1 (5 μl of 100 mM stock in DMSO) and 0.1 mM STP alkyne 1 (5 μl of 10 mM stock in DMSO), respectively. For competitive isoTOP-ABPP, after in vitro fragment treatment (detailed above), the samples were labeled for 1 h at ambient temperature with 0.1 mM STP-alkyne 1 (5 μl of 10 mM stock in DMSO). Samples were conjugated by copper-mediated azide-alkyne cycloaddition (CuAAC) to either the light (1 mM STP-alkyne or fragment treated) or heavy (0.1 mM STP-alkyne or DMSO treated) TEV tags (10 μl of 5 mM stocks in DMSO, final concentration=100 μM) using tris(2-carboxyethyl)phosphine hydrochloride
(§3) R value calculation and processing. The ratios of light and heavy MS1 peaks for each unique peptide were quantified with a CIMAGE software using default parameters (3 MS1 acquisitions per peak and signal to noise threshold set to 2.5). For reactivity measurements by isoTOP-ABPP, the R value was calculated from the ratio of MS1 peak areas, comparing the 1 mM STP alkyne sample (light TEV tag) with the 0.1 mM STP alkyne sample (heavy TEV tag). For competitive isoTOP-ABPP, the R value was calculated from the ratio of MS1 peak areas, comparing the DMSO treated sample (heavy TEV tag) with the compound treated sample (light TEV tag). […] Ratios for unique peptide entries are calculated for each experiment; overlapping peptides with the same modified lysine (for example, different charge states, MudPIT chromatographic steps or tryptic termini) are grouped together and the median ratio is reported as the final ratio (R). The peptide ratios reported by CIMAGE were further filtered to ensure the removal or correction of low-quality ratios in each individual data set. The quality filters applied were the following: removal of half tryptic peptides; for ratios with high standard deviations from the median (90% of the median or above) the lowest ratio was taken instead of the median; removal of peptides with R=20 and only a single MS2 event triggered during the elution of the parent ion; manual annotation of all the peptides with ratios of 20, removing any peptides with low quality elution profiles that remained after the previous curation steps (only done for competitive isoTOP-ABPP).
(§4) Cross-data processing for fragment screening. For compound treated samples, biological replicates of the same condition were averaged, if the standard deviation was below 60% of the mean; otherwise, for lysines with at least one R value <4 for a particular compound, the lowest value of the ratio set was taken. For lysines, where all R values for a particular compound were ≥4, the average was reported. For peptides containing several possible modified lysines, the lysine with the highest number of quantification events was used for analysis and the remaining, redundant peptides were reported as alternative modification sites. Peptides included in the aggregate dataset (those used for further bioinformatics and statistical analyses) were required to have been quantified in 2 experiments for competitive isoTOP-ABPP. Lysines were categorized as liganded, if they had at least one ratio R≥4 (hit fragments). For liganded lysines with R=20 for all liganding events, lysines were required to have been quantified with R=20 in two separate experiments and were further required to have been quantified with R<20 in one additional experiment.

[2] = target: T2, CPOX Coproporphyrinogen-III oxidase, mitochondrial (Homo sapiens, UniProt P36551); parameters: key to isoTOP-ABPP reactivity ratio at lysine P36551_K404: R = MS1 peak area ratio, DMSO (heavy) / compound-treated (light); settings: 50 uM, 231 sol, in vitro; for R value (DMSO/fragment) for probe 1 labeling: P36551_K404
T2 construct: isoTOP-ABPP experiments performed in cell lysates (in vitro); endogenous in cells; host or cells: soluble proteome of human cancer cell lines (MDA-MB-231; Ramos and Jurkat also prepared)
T2 sequence (P36551 111-454): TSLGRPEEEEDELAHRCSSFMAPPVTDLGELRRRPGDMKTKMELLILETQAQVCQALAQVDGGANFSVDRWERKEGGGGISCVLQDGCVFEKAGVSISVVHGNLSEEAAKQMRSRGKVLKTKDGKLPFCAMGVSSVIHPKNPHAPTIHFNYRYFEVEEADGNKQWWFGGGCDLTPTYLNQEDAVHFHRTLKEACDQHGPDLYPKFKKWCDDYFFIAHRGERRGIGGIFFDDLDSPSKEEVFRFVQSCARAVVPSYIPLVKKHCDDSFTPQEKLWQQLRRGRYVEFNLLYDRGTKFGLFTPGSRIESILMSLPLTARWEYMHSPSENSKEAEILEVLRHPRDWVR
Description: as §1, §2, §3, §4

[3] = target: T3, ECH1 Delta(3,5)-Delta(2,4)-dienoyl-CoA isomerase, mitochondrial (Homo sapiens, UniProt Q13011); parameters: key to isoTOP-ABPP reactivity ratio at lysine Q13011_K112: R = MS1 peak area ratio, DMSO (heavy) / compound-treated (light); capped at 20; settings: 50 uM, 231 sol, in vitro; for R value (DMSO/fragment) for probe 1 labeling: Q13011_K112
T3 construct: isoTOP-ABPP experiments performed in cell lysates (in vitro); endogenous in cells; host or cells: soluble proteome of human cancer cell lines (MDA-MB-231, Ramos, Jurkat)
T3 sequence (Q13011 34-328): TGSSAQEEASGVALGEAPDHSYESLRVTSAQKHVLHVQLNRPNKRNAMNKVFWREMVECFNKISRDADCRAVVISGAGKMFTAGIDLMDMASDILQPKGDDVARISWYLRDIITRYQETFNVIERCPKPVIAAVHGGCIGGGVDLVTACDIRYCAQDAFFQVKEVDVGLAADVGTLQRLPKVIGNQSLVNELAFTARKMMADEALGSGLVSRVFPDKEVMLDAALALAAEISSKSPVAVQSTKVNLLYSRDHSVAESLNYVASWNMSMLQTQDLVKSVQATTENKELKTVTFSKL
Description: as §1, §2, §3, §4

[4] = target: T4, NUDT2 Bis(5-nucleosyl)-tetraphosphatase (Homo sapiens, UniProt P50583); parameters: key to isoTOP-ABPP reactivity ratio at lysine P50583_K89: R = MS1 peak area ratio, DMSO (heavy) / compound-treated (light); settings: 50 uM, 231 sol, in vitro; for R value (DMSO/fragment) for probe 1 labeling: P50583_K89
T4 construct: isoTOP-ABPP experiments performed in cell lysates (in vitro); endogenous in cells
Description: as §1, §2, §3, §4

T4 sequence (P50583 whole entry, the tested form may be a part): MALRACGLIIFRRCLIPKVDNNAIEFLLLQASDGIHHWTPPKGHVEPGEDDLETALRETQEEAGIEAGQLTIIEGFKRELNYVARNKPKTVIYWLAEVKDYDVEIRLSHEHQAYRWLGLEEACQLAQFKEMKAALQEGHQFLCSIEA

SMILES | R value (DMSO/fragment) for probe 1 labeling [1] | R value (DMSO/fragment) for probe 1 labeling [2] | R value (DMSO/fragment) for probe 1 labeling [3] | R value (DMSO/fragment) for probe 1 labeling [4] | isoTOP-ABPP reactivity ratio at lysine Q9BSH5_K15 [1] | isoTOP-ABPP reactivity ratio at lysine P36551_K404 [2] | isoTOP-ABPP reactivity ratio at lysine P50583_K89 [4] | isoTOP-ABPP reactivity ratio at lysine Q13011_K112 [3]
O=C(CCc1cn(-c2ccccc2)nc1-c1ccccc1)Oc1c(F)c(F)c(F)c(F)c1F [fragment 19, Pentafluorophenyl 3-(1,3-diphenyl-1H-pyrazol-4-yl)propanoate] | 20.0 | 10.8 | 4.7 | 1.0 | – | – | – | –
O=C(Oc1c(F)c(F)c(F)c(F)c1F)C(c1ccccc1)c1ccccc1 [fragment 20, Pentafluorophenyl 2,2-diphenylacetate] | 1.1 | 1.1 | 1.4 | 0.9 | – | – | – | –
O=C(Oc1c(F)c(F)c(F)c(F)c1F)c1cc(C(F)(F)F)cc(C(F)(F)F)c1 [fragment 21, Pentafluorophenyl 3,5-bis(trifluoromethyl)benzoate] | 1.0 | 1.0 | 1.5 | 0.9 | – | – | – | –
Cn1cc(CC(=O)Oc2c(F)c(F)c(F)c(F)c2F)c2ccccc21 [fragment 22, Pentafluorophenyl 2-(1-methyl-1H-indol-3-yl)acetate] | 1.1 | 1.1 | 1.5 | 0.9 | – | – | – | –
COc1cc(CCC(=O)Oc2c(F)c(F)c(F)c(F)c2F)cc(OC)c1OC [fragment 23, Pentafluorophenyl 3-(3,4,5-trimethoxyphenyl)propanoate] | 1.3 | 1.3 | 4.7 | 1.0 | – | – | – | –
O=C(Oc1c(F)c(F)c(F)c(F)c1F)C1CCN(C(=O)OCc2ccccc2)CC1 [fragment 24, 1-Benzyl 4-(pentafluorophenyl) piperidine-1,4-dicarboxylate] | – | – | – | – | 2.3 | 1.2 | 0.9 | –
O=C(Oc1c(F)c(F)c(F)c(F)c1F)c1ccc2ccccc2n1 [fragment 25, Pentafluorophenyl quinoline-2-carboxylate] | – | – | – | – | 4.0 | 1.3 | 1.0 | 2.7
O=C(CCc1coc2cc(F)ccc2c1=O)Oc1c(F)c(F)c(F)c(F)c1F [fragment 26, Pentafluorophenyl 3-(7-fluoro-4-oxo-4H-chromen-3-yl)propanoate] | – | – | – | – | 3.4 | 1.1 | 0.9 | –
O=C(CN1C(=O)c2ccccc2C1=O)Oc1c(F)c(F)c(F)c(F)c1F [fragment 27, Pentafluorophenyl 2-(1,3-dioxoisoindolin-2-yl)acetate] | – | – | – | – | 2.3 | 1.2 | 0.7 | 2.7
CCn1cc(C(=O)Oc2c(F)c(F)c(F)c(F)c2F)c(=O)c2ccc(C)nc21 [fragment 28, Pentafluorophenyl 1-ethyl-7-methyl-4-oxo-1,4-dihydro-1,8-naphthyridine-3-carboxylate] | – | – | – | – | 13.8 | 0.9 | 1.0 | 1.8
O=C(CCc1cn(-c2ccccc2)nc1-c1ccccc1)Oc1ccc([N+](=O)[O-])cc1[N+](=O)[O-] [fragment 29, 2,4-Dinitrophenyl 3-(1,3-diphenyl-1H-pyrazol-4-yl)propanoate] | – | – | – | – | 20.0 | 18.1 | 1.0 | 1.0
O=C(Oc1ccc([N+](=O)[O-])cc1[N+](=O)[O-])C(c1ccccc1)c1ccccc1 [fragment 30, 2,4-Dinitrophenyl 2,2-diphenylacetate] | – | – | – | – | 20.0 | 1.1 | 1.1 | 0.9
O=C(Oc1ccc([N+](=O)[O-])cc1[N+](=O)[O-])c1cc(C(F)(F)F)cc(C(F)(F)F)c1 [fragment 31, 2,4-Dinitrophenyl 3,5-bis(trifluoromethyl)benzoate] | – | – | – | – | 4.6 | 1.1 | 0.8 | 1.2
Cn1cc(CC(=O)Oc2ccc([N+](=O)[O-])cc2[N+](=O)[O-])c2ccccc21 [fragment 32, 2,4-Dinitrophenyl 2-(1-methyl-1H-indol-3-yl)acetate] | – | – | – | – | 6.7 | 1.0 | 3.7 | 1.0
